# Structures can show the parent of a compound that is named as a salt.
# What was measured:
# HeLa [1] = test: Cell Painting percent induction (share of features beyond 2 z-scores vs DMSO); higher = more features changed / larger toxic effect; extreme values may be limits of the assay; conditions: incubation time: 24h incubation
# human spermatozoa [2] = test: total motile sperm, percent change vs DMSO (non-capacitating); higher = more of the measured sperm population than DMSO, for viability, fewer PI-positive (dead) cells than DMSO
# human spermatozoa [3] = test: progressively motile sperm, percent change vs DMSO (non-capacitating); higher = more of the measured sperm population than DMSO, for viability, fewer PI-positive (dead) cells than DMSO; extreme values may be limits of the assay
# human spermatozoa [4] = test: change in acrosome-reacted (PNA+) sperm vs DMSO, no agonist (capacitating); higher = more of the measured sperm population than DMSO, for viability, fewer PI-positive (dead) cells than DMSO; conditions: incubation time: 3h
# human spermatozoa [5] = test: progressively motile sperm, percent change vs DMSO (capacitating); higher = more of the measured sperm population than DMSO, for viability, fewer PI-positive (dead) cells than DMSO; conditions: incubation time: 30min incubation
# HeLa [6] = test: HeLa toxicity: nuclei-count effect normalised to DMSO (DMSO = 0); higher = more features changed / larger toxic effect; conditions: incubation time: 24h incubation
# human spermatozoa [7] = test: viability fold change, 1 - (PI-positive fraction / DMSO median); higher = more of the measured sperm population than DMSO, for viability, fewer PI-positive (dead) cells than DMSO; conditions: incubation time: 3h, non-capacitating
# human spermatozoa [8] = test: hyperactivated motile sperm, percent change vs DMSO (capacitating); higher = more of the measured sperm population than DMSO, for viability, fewer PI-positive (dead) cells than DMSO; conditions: incubation time: 30min incubation
# human spermatozoa [9] = test: acrosome-reacted (PNA+) sperm after agonist cocktail, percent change vs DMSO (capacitating); higher = more of the measured sperm population than DMSO, for viability, fewer PI-positive (dead) cells than DMSO; conditions: incubation time: 3h, capacitating + agonist cocktail 1h
# HepG2 = HepG2 toxicity (resazurin), effect normalised to DMSO (DMSO = 0); higher = more features changed / larger toxic effect; conditions: incubation time: 70h incubation
# [10] = incubation time: 10min incubation, 9.99 µM
# [11] = incubation time: 10min incubation, 29.9 µM
# [12] = incubation time: 3h incubation, 9.99 µM
# [13] = incubation time: 3h incubation, 29.9 µM
# [14] = incubation time: 6h incubation, 9.99 µM
# [15] = incubation time: 6h incubation, 29.9 µM
# 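Wherever progressively motile sperm, percent change vs DMSO (non-capacitating) is given: pooled live human sperm from at least 3 donors, tracked by automated microscopy in 0.5 s time-lapse movies, compounds at 10 and 30 µM, versus median of 16 DMSO wells per plate.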
# 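Wherever total motile sperm, percent change vs DMSO (non-capacitating) is given: sperm pooled from at least 3 donors, tracked in 0.5 s time-lapse movies by automated microscopy after 10 min, 3 h or 6 h with compound at 10 or 30 µM.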
Compound,Cell Painting percent induction (HeLa [1]; 9.99 µM),Cell Painting percent induction (HeLa [1]; 29.9 µM),total motile sperm (human spermatozoa [2]; [10]),total motile sperm (human spermatozoa [2]; [11]),total motile sperm (human spermatozoa [2]; [12]),total motile sperm (human spermatozoa [2]; [13]),total motile sperm (human spermatozoa [2]; [14]),total motile sperm (human spermatozoa [2]; [15]),progressively motile sperm (human spermatozoa [3]; [10]),progressively motile sperm (human spermatozoa [3]; [11]),progressively motile sperm (human spermatozoa [3]; [12]),progressively motile sperm (human spermatozoa [3]; [13]),progressively motile sperm (human spermatozoa [3]; [14]),progressively motile sperm (human spermatozoa [3]; [15]),change in acrosome-reacted (human spermatozoa [4]; 9.99 µM),change in acrosome-reacted (human spermatozoa [4]; 29.9 µM),progressively motile sperm (human spermatozoa [5]; 9.99 µM),progressively motile sperm (human spermatozoa [5]; 29.9 µM),HeLa toxicity: nuclei-count effect normalised (HeLa [6]; 9.99 µM),HeLa toxicity: nuclei-count effect normalised (HeLa [6]; 29.9 µM),viability fold change (human spermatozoa [7]; 9.99 µM),viability fold change (human spermatozoa [7]; 29.9 µM),hyperactivated motile sperm (human spermatozoa [8]; 9.99 µM),hyperactivated motile sperm (human spermatozoa [8]; 29.9 µM),acrosome-reacted (human spermatozoa [9]; 9.99 µM),acrosome-reacted (human spermatozoa [9]; 29.9 µM),HepG2 toxicity (HepG2; 10 µM),HepG2 toxicity (HepG2; 30 µM)
Nc1nonc1C(=O)c1cccc(OCc2nc3ccccc3[nH]2)c1 [ASI-8],0.036%,0.072%,3.13%,2.79%,1.2%,-0.414%,3.96%,1.2%,-2.86%,-2.99%,-14.7%,-20.6%,-17.4%,-29.2%,0.432%,0.568%,11.1%,6.99%,-5.48%,1.8%,-0.34,-0.223,-38%,-39.8%,-14.8%,-14.9%,7.95%,-4.37%
NC(=O)Nc1cc(-c2cccc(F)c2)sc1C(=O)N[C@H]1CCCNC1 [AZD 7762 hydrochloride],17%,11%,-11.3%,-17.4%,-10.7%,-22.4%,-13.2%,-23.1%,-49.3%,-57.6%,-35.4%,-48.7%,-30.8%,-49.2%,0.07%,1.03%,-19.7%,-30.7%,80.1%,76.8%,-0.829,-1.22,-57.9%,-72%,-44.6%,-44%,101%,101%
CCCCC(CC)C/N=C(\N)N/C(N)=N/CCCCCC/N=C(\N)N/C(N)=N/CC(CC)CCCC (configuration not stated) [Alexidine dihydrochloride],4.11%,13.2%,-25.4%,-91.3%,-92.5%,-89.6%,-92.8%,-89.2%,-63.3%,-99.9%,-99.9%,-100%,-100%,-100%,65.4%,86.5%,-95.3%,-100%,82.5%,57.3%,-2.59,-3.31,-81.6%,-86.5%,148%,214%,89.8%,103%
COc1cc2nc(N(C)CCCNC(=O)C3CCCO3)nc(N)c2cc1OC (configuration not stated) [Alfuzosin],0%,0%,-4.58%,-4.17%,-0.419%,-6.01%,-5.29%,-6.7%,0.477%,-1.83%,14.5%,16.4%,16.7%,20.9%,-0.201%,-0.552%,16%,9.67%,5.08%,0.668%,-0.036,-0.0945,37.3%,5.32%,-3.12%,0.779%,-1.03%,4.29%
CCCCC/C=C\C/C=C\C/C=C\C/C=C\CCCC(=O)NCCO [Anandamide],0%,0%,0.0733%,1.31%,-5.97%,0.46%,-4.78%,-4.35%,0.835%,4.89%,8.76%,18.1%,15.3%,17.7%,0.407%,0.71%,5.07%,5.94%,3.27%,22.7%,-1.03,-1.89,-8.05%,-17.2%,-2.45%,-3.7%,4%,-4.04%
Cn1c(=O)c2c(-c3ccccc3)n3c(c2n(C)c1=O)[C@H](c1ccc(Br)o1)Oc1ccc(C(=O)O)cc1-3 [BPO-27],0.901%,0%,-0.595%,-2.15%,1.67%,-2.1%,2.71%,-8.78%,4.77%,14.7%,32.6%,41.5%,37.8%,42.7%,0.114%,-0.202%,-0.551%,-1.51%,-5.61%,-3.14%,-0.786,-0.502,26.2%,0.866%,6.48%,12.2%,6.74%,-5.25%
Oc1c(Cl)cc(Cl)cc1Sc1cc(Cl)cc(Cl)c1O [Bithionol],0%,0.036%,3.44%,1.84%,1.98%,-0.0801%,2.41%,-5.59%,3.11%,-10.9%,11.4%,-27.5%,17.4%,-30.7%,0.572%,1.65%,2.24%,1.88%,-4.61%,21.5%,0.0494,0.376,4.13%,7.86%,1.08%,-1.64%,7.02%,59.3%
NC(=O)c1cc(-c2ccc(S(=O)(=O)[C@H]3CC[C@H](Nc4ccc(C(F)(F)F)cn4)CC3)cc2)ccn1 [CCR6 inhibitor 1],0.144%,1.51%,-1.18%,-0.388%,-10.1%,-17.5%,-12.7%,-30%,20.1%,23%,25.5%,9.27%,37.7%,-18.5%,0.47%,1.33%,4.84%,-2.5%,38.5%,82.3%,-1.3,-0.257,0.384%,-27%,47.9%,31%,93.6%,97.6%
O=C(O)c1ccc(/C=C2/SC(=S)N(c3cccc(C(F)(F)F)c3)C2=O)cc1 [CTFRinh-172],1.51%,2.67%,-0.0195%,0.898%,0.0108%,-0.0432%,-7.63%,-1.41%,3.85%,-3.67%,4.25%,3.7%,-2.41%,3.06%,0.257%,-0.529%,-6.92%,-8.59%,0.134%,4.28%,-0.401,-0.284,-0.45%,-19.9%,2.51%,5.75%,10.5%,-1.68%

# Source: the supplement of paper PMC10878532, “Sperm Toolbox—A selection of small molecules to study human spermatozoa” (PLOS ONE, 2024)
